Source: patent US6777190B1, “Crosstalk inhibitors and their uses” (Biosite, Inc., priority 1991, dated 2004)

System: monoclonal antibodies to morphine (morp Ab)
Test: Crosstalk inhibitor test: colloidal gold ligand analogue conjugate binding at the morp Ab zone of a nylon membrane (color density DE*)
Details: 5 μl (1.1 μmol) inhibitor, Table 3 #6 vs #1

## O=C(O)CCCCCNC(=O)C1CCC(CN2C(=O)CC(SCCC(=O)O)C2=O)CC1 (stereo not shown) [CCM-MPA]
  decrease of the morphine response: about 30%
